Data: PubChem BioAssay AID1259407 (Chemical Carcinogenesis Research Information System (CCRIS), 2018)
The source made the active and inactive calls. How the calls were made is not given here.

Tested on: CCRIS mutagenicity, Ames/micronucleus/aberration tests
Experiment: CCRIS mutagenicity studies
[1] = Test System: AMES SALMONELLA TYPHIMURIUM, Strain/Indicator: TA98, Metabolic Activation: NONE, Method: PREINCUBATION
[2] = Test System: AMES SALMONELLA TYPHIMURIUM, Strain/Indicator: TA100, Metabolic Activation: NONE, Method: STANDARD PLATE
[3] = Test System: AMES SALMONELLA TYPHIMURIUM, Strain/Indicator: TA98, Metabolic Activation: NONE, Method: STANDARD PLATE
[4] = Test System: AMES SALMONELLA TYPHIMURIUM, Strain/Indicator: TA1535, Metabolic Activation: NONE, Method: STANDARD PLATE

Sc1ccccc1
mutagenic call [1]: inactive; negative
mutagenic call (Test System: AMES SALMONELLA TYPHIMURIUM, Strain/Indicator: TA98, Metabolic Activation: RAT LIVER S-9, PHENOBARBITAL AND BETA-NAPHTHOFLAVONE, Method: PREINCUBATION): inactive; negative
mutagenic call (Test System: AMES SALMONELLA TYPHIMURIUM, Strain/Indicator: TA100, Metabolic Activation: NONE, Method: PREINCUBATION): inactive; negative
mutagenic call (Test System: AMES SALMONELLA TYPHIMURIUM, Strain/Indicator: TA100, Metabolic Activation: RAT LIVER S-9, PHENOBARBITAL AND BETA-NAPHTHOFLAVONE, Method: PREINCUBATION): inactive; negative
mutagenic call (Test System: AMES SALMONELLA TYPHIMURIUM, Strain/Indicator: TA1535, Metabolic Activation: NONE, Method: PREINCUBATION): inactive; negative
mutagenic call (Test System: AMES SALMONELLA TYPHIMURIUM, Strain/Indicator: TA1535, Metabolic Activation: RAT LIVER S-9, PHENOBARBITAL AND BETA-NAPHTHOFLAVONE, Method: PREINCUBATION): inactive; negative
mutagenic call (Test System: AMES SALMONELLA TYPHIMURIUM, Strain/Indicator: TA1537, Metabolic Activation: NONE, Method: PREINCUBATION): inactive; negative
mutagenic call (Test System: AMES SALMONELLA TYPHIMURIUM, Strain/Indicator: TA1537, Metabolic Activation: RAT LIVER S-9, PHENOBARBITAL AND BETA-NAPHTHOFLAVONE, Method: PREINCUBATION): inactive; negative
mutagenic call (Test System: AMES SALMONELLA TYPHIMURIUM, Strain/Indicator: TA1538, Metabolic Activation: NONE, Method: PREINCUBATION): inactive; negative
mutagenic call (Test System: AMES SALMONELLA TYPHIMURIUM, Strain/Indicator: TA1538, Metabolic Activation: RAT LIVER S-9, PHENOBARBITAL AND BETA-NAPHTHOFLAVONE, Method: PREINCUBATION): inactive; negative
mutagenic call (Test System: E.COLI, Strain/Indicator: WP2UVRA, Metabolic Activation: NONE, Method: PREINCUBATION): active; positive
mutagenic call (Test System: E.COLI, Strain/Indicator: WP2UVRA, Metabolic Activation: RAT LIVER S-9, PHENOBARBITAL AND BETA-NAPHTHOFLAVONE, Method: PREINCUBATION): inactive; negative

O=C1OC(=C(Cl)Cl)C=C1Cl
mutagenic call [2]: active; positive

COc1ccc2nc3cc(Cl)ccc3c(NCCCNCCCl)c2c1
mutagenic call (Test System: AMES SALMONELLA TYPHIMURIUM, Strain/Indicator: TA97A, Metabolic Activation: NONE, Method: STANDARD PLATE): active; positive
mutagenic call [3]: active; positive
mutagenic call [2]: active; positive
mutagenic call [4]: inactive; negative
mutagenic call (Test System: AMES SALMONELLA TYPHIMURIUM, Strain/Indicator: TA1536, Metabolic Activation: NONE, Method: STANDARD PLATE): active; positive
mutagenic call (Test System: AMES SALMONELLA TYPHIMURIUM, Strain/Indicator: TA1538, Metabolic Activation: NONE, Method: STANDARD PLATE): active; positive
mutagenic call (Test System: CHINESE HAMSTER V-79, Strain/Indicator: V-79/6-THIOGUANINE, Metabolic Activation: NONE, Method: FLASK ASSAY): active; positive
mutagenic call (Test System: CHO/HGPRT, Strain/Indicator: CHO-K1-BH4, Metabolic Activation: NONE, Method: STANDARD PLATE): active; positive
mutagenic call (Test System: UDS RODENT CELLS, Strain/Indicator: THY INCORP (NON-S-PHASE), Metabolic Activation: NONE, Method: LIQUID SCINTILLATION COUNTING): active; positive

CNc1ccc2nc3ccc(=[N+](C)C)cc-3sc2c1
mutagenic call (Test System: Ames Salmonella typhimurium, Strain/Indicator: TA98, Metabolic Activation: None, Method: Preincubation): active; positive
mutagenic call (Test System: Ames Salmonella typhimurium, Strain/Indicator: TA98, Metabolic Activation: Rat, Liver, S-9, Aroclor 1254 (10%), Method: Preincubation): active; positive
mutagenic call (Test System: Ames Salmonella typhimurium, Strain/Indicator: TA100, Metabolic Activation: None, Method: Preincubation): active; positive
mutagenic call (Test System: Ames Salmonella typhimurium, Strain/Indicator: TA100, Metabolic Activation: Rat, Liver, S-9, Aroclor 1254 (10%), Method: Preincubation): active; positive
mutagenic call (Test System: E. coli, Strain/Indicator: WPM uvrA/pKM101, Metabolic Activation: None, Method: Preincubation): active; positive
mutagenic call (Test System: E. coli, Strain/Indicator: WPM uvrA/pKM101, Metabolic Activation: Rat, Liver, S-9, Aroclor 1254 (10%), Method: Preincubation): active; positive

N[C@@H](CCC(=O)N(CC(=O)O)C(=O)[C@@H](N)CSCCCl)C(=O)O
mutagenic call [2]: active; positive

Nc1cc([N+](=O)[O-])ccc1C(=O)O
mutagenic call [1]: active; positive
mutagenic call (Test System: AMES SALMONELLA TYPHIMURIUM, Strain/Indicator: TA98, Metabolic Activation: RAT, LIVER, S-9, AROCLOR, Method: PREINCUBATION): active; positive
mutagenic call (Test System: CHINESE HAMSTER OVARY, Strain/Indicator: CHO-K1-BH4 (HGPRT)/6-THIOGUANINE, Metabolic Activation: NONE): inactive; negative
mutagenic call (Test System: CHINESE HAMSTER OVARY, Strain/Indicator: CHO-K1-BH4 (HGPRT)/6-THIOGUANINE, Metabolic Activation: S-9): inactive; negative

Cc1cc(N=Nc2ccccc2)c(N)cc1N
mutagenic call (Test System: AMES SALMONELLA TYPHIMURIUM, Strain/Indicator: TA100, Metabolic Activation: HUMAN, LIVER, S-9, Method: PREINCUBATION): inactive; negative
mutagenic call (Test System: AMES SALMONELLA TYPHIMURIUM, Strain/Indicator: TA100, Metabolic Activation: RAT, LIVER, HEPATOCYTES, Method: PREINCUBATION): inactive; negative
mutagenic call (Test System: AMES SALMONELLA TYPHIMURIUM, Strain/Indicator: TA100, Metabolic Activation: RAT, LIVER, S-9, BETA-NAPHTHOFLAVONE, Method: PREINCUBATION): active; positive
mutagenic call (Test System: AMES SALMONELLA TYPHIMURIUM, Strain/Indicator: TA100, Metabolic Activation: RAT, LIVER, S-9, PHENOBARBITAL, Method: PREINCUBATION): active; positive
mutagenic call (Test System: AMES SALMONELLA TYPHIMURIUM, Strain/Indicator: TA100, Metabolic Activation: RAT, LIVER, S-9, Method: PREINCUBATION): active; positive
mutagenic call (Test System: UDS RODENT HEPATOCYTES, Strain/Indicator: THY INCORP, Metabolic Activation: NONE, Method: AUTORADIOGRAPHY): active; positive

OCc1cc2ccc3cccnc3c2[nH]1
mutagenic call [3]: inactive; negative
mutagenic call (Test System: E. COLI, Strain/Indicator: WP2 TM9, Metabolic Activation: NONE, Method: STANDARD PLATE): inactive; negative

CNC(=O)ON(C(C)=O)C(=O)NC
mutagenic call (Test System: AMES SALMONELLA TYPHIMURIUM, Strain/Indicator: TA98, Metabolic Activation: RAT, LIVER, S-9, Method: STANDARD PLATE): active; positive
mutagenic call [2]: inactive; negative

CC(Br)(CO)CBr (stereo not drawn)
mutagenic call [2]: inactive; negative

N#Cc1ccc(/C=C/c2ccc([N+](=O)[O-])cc2)cc1
mutagenic call (Test System: AMES SALMONELLA TYPHIMURIUM, Strain/Indicator: TA98 (NR), Metabolic Activation: NONE, Method: STANDARD PLATE): active; positive
mutagenic call (Test System: AMES SALMONELLA TYPHIMURIUM, Strain/Indicator: TA98 (NR), Metabolic Activation: S-9, Method: STANDARD PLATE): active; positive
mutagenic call (Test System: AMES SALMONELLA TYPHIMURIUM, Strain/Indicator: TA98, Metabolic Activation: RAT, LIVER, S-9, AROCLOR, Method: STANDARD PLATE): active; positive
mutagenic call (Test System: AMES SALMONELLA TYPHIMURIUM, Strain/Indicator: TA98, Metabolic Activation: S-9, Method: STANDARD PLATE): active; positive
mutagenic call (Test System: AMES SALMONELLA TYPHIMURIUM, Strain/Indicator: TA100 (NR), Metabolic Activation: NONE, Method: STANDARD PLATE): inactive; negative
mutagenic call (Test System: AMES SALMONELLA TYPHIMURIUM, Strain/Indicator: TA100(NR), Metabolic Activation: S-9, Method: STANDARD PLATE): inactive; negative
mutagenic call (Test System: AMES SALMONELLA TYPHIMURIUM, Strain/Indicator: TA100, Metabolic Activation: RAT, LIVER, S-9, AROCLOR, Method: STANDARD PLATE): active; positive
mutagenic call (Test System: AMES SALMONELLA TYPHIMURIUM, Strain/Indicator: TA100, Metabolic Activation: S-9, Method: STANDARD PLATE): active; positive

c1ccc(CN2CCN=N2)cc1
mutagenic call [4]: active; positive
